How the values were obtained:
[1] = Tolerability of gavage feeding; type: in vivo, SJL mice; conditions: higher doses (of 50, 125 and 250 μl), seven days
[2] = Precipitation of the solubilised sn-2 monoglyceride; type: physicochemical; conditions: acid pH
TNF-α = conditions: cited from earlier work
TGF-β1 = TGF-β1 production from spleen mononuclear cells of mice fed the monoglyceride by gavage (ELISA); type: in vivo, SJL mice; conditions: fed 50 μg; for TGF-β1 production from spleen PBMCs: seven days by gavage
Experimental: After seven days animals were killed and the brain, liver and spleen were removed—the liver and brain frozen at −70° C. and mononuclear cells were isolated from spleens by sieving and density centrifugation on Lymphoprep (Sigma Chemical Co) and cultured at 37° C. in 5% CO2 atmosphere in 5 ml culture tubesat a cell density of 1×10^6 cells/ml in RPMI 1640 medium in 5% foetal calf serum (FCS). Cells were cultured with and without 1 μg/ml or 25 μg/ml concanavalin A (Con A) for approximately 20 hours and the supernatants removed and stored at −70° C. until required. Mouse TGF-β1 was measured in supernatants using a commercially available ELISA (Promega, Madison Wis.).

[3] = Storage stability and rearrangement of the monoglyceride; type: physicochemical
Excerpt: This exemplifies its potential for inclusion in air excluding formats such as capsules or e.g. collapsible bag containers which allow egress of oil without entry of air. A high purity process for its synthesis has also been published in Yang et al, Journal of the Chinese Institute of Chemical Engineers, 34, 617-623 (2003). These processes lend themselves to synthesis of n-3 and n-6 sn-2 monoglycerides by replacing the arachdonoyl or γ-linolenoyl source with the desired acyl group containing molecule.
Boric acid (2.81) g, 0.045 mol, 4 equivalents) was added to a freshly prepared solution of 1,3-O-benzylidene glycerol 2-octa-6Z,9Z,12Z-trienoate (5.0 g, 0.011 mol, 1 equivalent) in trimethyl borate (28 ml, 26.0 g, 0.25 mol, 22 equivalents) under N2. The mixture was stirred and heated in a sealed Teflon bomb at 90° C. for 15 minutes. The resulting cool solution was concentrated in vacuo and the residue heated at 90° C. under vacuum for 5 minutes. […] This process was repeated on the same scale twice more and the combined residues were dissolved in ether (150 ml) and washed with water (2×50 ml). The ether extract (not dried as MgSO4 promotes rearrangement) was concentrated in vacuo, ethanol added to the residue and the solution re-evaporated with ethanol (2×) to remove water. The residual tan oil (15.0 g) was purified by column chromatography on solica gel-boric acid (10:1) (10 g). Elution with DCM and then DCM-methanol (9:1) gave the product as a yellow oil (11.7 g, 73%) HPLC purity 93.4%. This material was stored in a freezer at −20° C. under N2.

CREAE = CREAE feeding study; type: in vivo
Excerpt: γ-Linolenic acid (18:3 n-6, or GLA) is known to be rapidly converted to longer-chain omega-6 polyunsaturated fatty acids dihomo-γ-linolenic acid and arachidonic acid in vivo (Phylactos et al 1994, Harbige et al 1995, 2000). Therefore to determine how to increase the level of membrane long chain omega-6 fatty acids in MS the inventors have reviewed their results obtained with several GLA-containing oils:-both fungal (from Mucor javanicus) and plant (Borago officianalis), Evening primrose Oenothera spp. or Blackcurrant Ribes spp) as well as a synthetic tri-GLA oil as GLA delivery systems in an in vivo experimental animal model of MS known as chronic relapsing experimental autoimmune encephalomyelitis (CREAE). […] Importantly blackcurrant seed oil has a low sn-2 GLA with most of the GLA in the sn-1 and sn-3 positions (Lawson and Hughes 1988). […] This would also be consistent with the sn-2 GLA being important i.e. the outer pair sn-1 and sn-3 GLA being enzymatically removed in vivo and probably undergoing oxidation leaving the sn-2 GLA only. This selective hydrolysis arises from the known ability of specific lipases to remove the sn-1 and sn-3 fatty acids from triacylgycerol molecules but an apparent protection of the sn-2 position in vivo (Lawson and Hughes 1988, Kyle 1990).

CCCCC/C=C\C/C=C\C/C=C\CCCCC(=O)OC(CO)CO [Example 1b, glycerol 2-octa-6Z,9Z,12Z-trienoate]
Regurgitation after gavage [1]: prone to regurgitation
Precipitation [2]: tendency to precipitate
Activity in reducing TNF-α (TNF-α): inactive
Change % of TGF-β1 production versus control (TGF-β1; Con A 0 μg/ml): 80%
Change % of TGF-β1 production versus control (TGF-β1; Con A 1 μg/ml): 79%
Change % of TGF-β1 production versus control (TGF-β1; Con A 25 μg/ml): 42%
TGF-β1 production from spleen PBMCs (TGF-β1; stimulated, Con A 1 μg/ml): 409 pg/mL
TGF-β1 production from spleen PBMCs (TGF-β1; stimulated, Con A 25 μg/ml): 480 pg/mL
TGF-β1 production from spleen PBMCs (TGF-β1; unstimulated, Con A 0 μg/ml): 377 pg/mL
Deterioration on storage ([3]; freezer at −20° C. under N2, 21 days): Little if any deterioration
Rearrangement to the 1-γ-Linolenoyl glycerol isomer ([3]; when heated or treated with acids or bases): can undergo rearrangement
Deterioration on storage ([3]; yellow oil, −20° C. under nitrogen, several weeks at least): without deterioration

CCCCC/C=C\C/C=C\C/C=C\CCCCC(=O)OCC(COC(=O)CCCC/C=C\C/C=C\C/C=C\CCCCC)OC(=O)CCCC/C=C\C/C=C\C/C=C\CCCCC [TG-GLA]
Protective effects in CREAE (CREAE): protective effects similar to that of the borage oil
